Measured values published in publication PMC9772450, “Gel-forming antagonist provides a lasting effect on CGRP-induced vasodilation” (Frontiers in Pharmacology, 2022).
Like-named read-outs stand apart in the source and are kept apart here. Non-standard residues stand in square brackets, D forms with d. Residues, ends and D or L forms follow the SMILES beside them. *: point of attachment. Met(O2) = CS(=O)(=O)CC[C@H](N)C(=O)O; Arg(Me) = CNC(=N)NCCC[C@H](N)C(=O)O; Palmitoyl = CCCCCCCCCCCCCCCC(=O)*; Nva = CCC[C@H](N)C(=O)O

What was measured:
[1] = cited from earlier work
[2] = Visual (tube-tapping) assay of gel-forming capability and solubility; format: physicochemical; design: key to Gel-forming ability: Y: can form a liquid gel; N: lacks the ability to efficiently form a liquid gel; details: for Gel-forming ability: visual inspection of 11% peptide solutions, tube-tapping, 20 min after mixing
Method: To evaluate the ability of peptides to form gels in situ, we initially determined this tendency qualitatively based on visual examinations of peptide solutions using a tube-tapping method. In addition, we quantitatively determined the viscosity of select peptide solutions using a viscometer (Rheosense Inc; http://www.rheosense.com/products/viscometers) ([Yan and Pochan, 2010]). In the visual assay, aliquots of peptides were dissolved in an aqueous solution (i.e., de-ionized water, saline, or 5% glucose solution). The peptide that dissolved instantly and stayed as a clear solution without obvious macroscopic change in viscosity at 20 min after mixing was considered soluble. If macroscopic particles of peptides remained in the solution at 20 min after mixing, the peptide was considered insoluble.

[3] = target: T1, CLR/RAMP1 receptor (Homo sapiens, UniProt O60894+Q16602); test: HitHunter cAMP XS+ CALCRL-RAMP1 cAMP assay, antagonist mode; format: cell-based; details: for IC50: CHO-K1 CALCRL-RAMP1 cAMP Hunter cells, human β-CGRP at EC80 (0.37nM), 30 min pre-incubation, 10-point curve from 10 μM, 3-fold dilutions, duplicate samples, assayed side-by-side once, read-out: IC50 for antagonizing CGRP-induced CLR/RAMP1 signaling; for Maximum response: antagonist mode, β-CGRP at EC80, 10-point curve, duplicate; for Antagonistic activity toward CGRP-mediated CLR/RAMP1 signaling compared to ADE651: result in words
T1 construct: host or cells: CHO-K1 (cAMP Hunter cell line)
Method: The assay of the antagonistic activity of analogs was conducted by the Eurofins Discoverx using the HitHunter cAMP XS + assay as described earlier ([Bradley and McLoughlin, 2009]; [Chang and Hsu, 2019]). The dose-dependent inhibitory effect of antagonists was studied in duplicate, at 10 different concentrations. Determination of the half-maximal inhibitory concentration (IC50) was performed using a 10-point dose-response curve. The starting concentration was 10 μM, and it was serially diluted 3-fold, in DMSO. […] Using the Hit Hunter® assay (CALCRL-RAMP1 cAMP assay in the antagonist mode; https://www.discoverx.com/products/cell-line/cho-k1-calcrl-ramp1-gs-cell-line-95-0164c2), the eight compounds in Table 1 were assayed side-by-side once, and the IC50 was derived based on the standard assay of duplicate samples of a ten-point curve. In this homogenous, non-imaging assay, the activation of CLR/RAMP1 signaling was evaluated using the Enzyme Fragment Complementation (EFC) technology with β-galactosidase (β-Gal) as the functional reporter. The enzyme was split into two complementary portions: an enzyme acceptor and an enzyme donor. The enzyme donor is fused to cAMP and it competes with cAMP generated by cells
For binding to a cAMP-specific antibody. Active β-Gal is formed by complementation of exogenous enzyme acceptor to any unbound enzyme donor-cAMP. The active enzyme then converted a chemiluminescent substrate to generate a signal. Briefly, cAMP Hunter cell lines with the select receptor were expanded from freezer stocks ([Bradley and McLoughlin, 2009]), and cells were seeded in a total volume of 20 μL into 384-well microplates and incubated at 37°C for the appropriate time. […] Intermediate dilution of samples was performed to generate 4X sample in the assay buffer. Before the assay, media was aspirated from cells and replaced with 10 μL 1:1 HBSS/Hepes:cAMP XS + Ab reagent, and 5 μL of 4X compound was added to the cells and incubated for 30 min. […] Vehicle concentration was 1%.
The chemiluminescent signal was read with a PerkinElmer chemiluminescent plate reader. The compound activity was analyzed using a CBIS data analysis suite (ChemInnovation, CA). The percentage inhibition was calculated using the following formula: % Inhibition = 100% x (1 - (mean RLU of test sample - mean RLU of vehicle control)/(mean RLU of EC80 control - mean RLU of vehicle control)). Data were normalized to the maximal and minimal response observed in the presence of EC80 agonist and vehicle.

[4] = test system: migraine; details: cited from earlier work
Source text: Migraine is a common complex neurovascular disorder that is manifested as episodic and predominantly unilateral throbbing headache with hypersensitivity to light, sound, and movement ([Erdener and Dalkara, 2014]; [Schuster and Rapoport, 2016]). According to the World Health Organization, 324 million people worldwide suffer from incapacitating migraine in 2008. In ∼ one-third of patients, migraine headaches are accompanied by an aura involving neurological symptoms such as transient visual, sensory, or motor disturbances ([Goadsby et al., 2002]). In the US, it was reported that 15% of Americans ...

[5] = Passage of peptide molecules through Centricon filters; format: physicochemical; details: Centricon 30,000 MW cutoff, 15 min centrifugation; specific EIA; N = 3 per group; result in words
Source text: To evaluate whether gel-formation reduces the movement of peptide molecules in solution, we used the Centricon® filters (Millipore) to separate samples and the carriers based on their molecular mass. The sample is monomeric peptides, and the carrier is the self-assembled gel. One milligram aliquots of the peptides were first dissolved as 0.1% solution in 5% glucose, 0.1% solution in saline, 5% solution in 5% glucose, 10% solution in 5% glucose, and 20% solution in 5% glucose. Ten minutes later, the 5%, 10%, and 20% solutions were diluted to the 0.1% level. Aliquots of these solutions were sampled and dispensed into separate Centricon columns (30,000 MW cutoff), and the monomeric peptide and gel molecules were separated by centrifugation for 15 min (2000 x g). The level of peptide in the elutes was determined by specific EIAs (Phoenix Pharmaceuticals Inc.).

[6] = test system: CGRP-induced vasodilation; test: Dermal blood flow and vasodilation in rat hindlimbs, laser Doppler imaging; format: in vivo, Sprague-Dawley rats; details: rat hindlimb; saline at 0 h; CGRP 1 mg/100 µL s.c. at 4 h; N = 3
Method: Adult Sprague Dawley male rats (body weight 150–200 g) were randomly divided into treatment groups. Animals were individually housed during the experiment. After acclimation, rats were anesthetized and stabilized under 2.5% isoflurane, and were placed on a heating pad. Testing articles were prepared just before the experiment and individually administered subcutaneously into the hindlimbs. Human β-CGRP (LifeTein LLC, Hillsborough, NJ) was dissolved in a saline solution, and the antagonist solution was prepared in a 5% glucose solution. […] In this experiment, the antagonist gel solution was administered at 0 h as a liquid solution shortly after dissolution to prevent issues associated with the formation of semi-solid gel when the peptide is dissolved at high levels. […] The amount of blood flow was determined by laser Doppler imaging as described earlier ([Van der Schueren et al., 2007]; [Benschop et al., 2014]). The laser Doppler scan series of the hindlimbs began with two baseline scans and was followed by two scans each at select time points. Data are reported as percent change from the average baseline scans.

T1 sequence (Q16602 23-461): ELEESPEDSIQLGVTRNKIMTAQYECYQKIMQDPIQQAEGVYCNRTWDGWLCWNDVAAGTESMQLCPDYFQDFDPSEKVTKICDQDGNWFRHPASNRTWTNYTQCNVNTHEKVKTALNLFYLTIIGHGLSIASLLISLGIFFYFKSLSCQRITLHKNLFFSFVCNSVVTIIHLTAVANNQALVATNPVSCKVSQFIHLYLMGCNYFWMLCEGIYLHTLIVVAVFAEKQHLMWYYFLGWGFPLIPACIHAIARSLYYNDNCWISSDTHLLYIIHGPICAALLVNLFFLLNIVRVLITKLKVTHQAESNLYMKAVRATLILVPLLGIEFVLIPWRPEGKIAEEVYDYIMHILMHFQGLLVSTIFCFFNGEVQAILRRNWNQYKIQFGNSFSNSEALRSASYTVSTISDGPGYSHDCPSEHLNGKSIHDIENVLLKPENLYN
T1 sequence (O60894 27-148): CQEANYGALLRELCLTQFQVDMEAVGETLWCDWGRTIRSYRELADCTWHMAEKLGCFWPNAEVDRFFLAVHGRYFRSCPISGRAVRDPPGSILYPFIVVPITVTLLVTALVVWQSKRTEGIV

Molecule: histrelin
- Volume of distribution ([1]; in vivo): 58.4 L

Molecule: CCCCCCCCCCCCCCCC(=O)N[C@@H](CCCCN)C(=O)N[C@H](C(=O)N[C@@H](CCC(N)=O)C(=O)N[C@@H](CCCCN)C(=O)N[C@@H](CCC)C(=O)N[C@@H](CO)C(=O)N[C@@H](C)C(=O)N1CCC[C@H]1C(=O)N[C@H](C(=O)N[C@@H](CC(=O)O)C(=O)N1CCC[C@H]1C(=O)N[C@@H](CO)C(=O)N[C@@H](CO)C(=O)N1CCC[C@H]1C(=O)N[C@@H](Cc1c[nH]cn1)C(=O)N[C@@H](CO)C(=O)N[C@@H](Cc1ccc(O)cc1)C(N)=O)C(C)C)C(C)C [ADE651C] (Palmitoyl-KVQK[Nva]SAPVDPSSPHSY-NH2)
- Gel-forming ability [2]: Y
- IC50 [3]: 1.3 nM
- Maximum response [3]: 101 % of positive control
- Antagonistic activity toward CGRP-mediated CLR/RAMP1 signaling compared to ADE651 [3]: retained the potent antagonistic activity

Molecule: exenatide: approved peptide therapeutic
- Volume of distribution ([1]; in vivo): 28.3 L

Molecule: C[C@@H]1[C@H](c2ccccc2)C[C@H](NC(=O)c2cnc3c(c2)C[C@@]2(C3)C(=O)Nc3ncccc32)C(=O)N1CC(F)(F)F [ubrogepant]
- Pain freedom at 2 h, share of acute migraine patients ([4]; 14.3% in the placebo group, ref Lipton et al., 2019, Switzer et al., 2022): 21.8%
- Absolute difference in the pain-free rate versus placebo ([4]; ref Lipton et al., 2019, Switzer et al., 2022): 6.4–7.5%

Molecule: CC1(C)O[C@@H]2[C@@H](CO[C@@]3(COS(N)(=O)=O)OC(C)(C)O[C@@H]23)O1 [topiramate]
- Reduction of migraine days ([4]; ref Overeem et al., 2021): 1.11 migraine days

Molecule: CCCCCCCCCCCCCCCC(=O)N[C@@H](CCCCN)C(=O)N[C@H](C(=O)N[C@@H](CCC(N)=O)C(=O)N[C@@H](CCCCN)C(=O)N[C@@H](CCS(C)(=O)=O)C(=O)N[C@@H](CO)C(=O)N[C@@H](C)C(=O)N1CCC[C@H]1C(=O)N[C@H](C(=O)N[C@@H](CC(=O)O)C(=O)N1CCC[C@H]1C(=O)N[C@@H](CO)C(=O)N[C@@H](CO)C(=O)N1CCC[C@H]1C(=O)N[C@@H](Cc1c[nH]cn1)C(=O)N[C@@H](CO)C(=O)N[C@@H](Cc1ccc(O)cc1)C(N)=O)C(C)C)C(C)C [ADE651J] (Palmitoyl-KVQK[Met(O2)]SAPVDPSSPHSY-NH2)
- Gel-forming ability [2]: Y
- IC50 [3]: 0.9 nM
- Maximum response [3]: 100.4 % of positive control
- Antagonistic activity toward CGRP-mediated CLR/RAMP1 signaling compared to ADE651 [3]: retained the potent antagonistic activity

Molecule: Pal-KVQ-Lys (Pyr)-LSAPVDPSSPHSY-NH2 [ADE651N, ADE651 variant, second lysine substituted with Lys (Pyr)]
- Gel-forming ability [2]: Y
- Maximum response [3]: 99.9 % of positive control
- Antagonistic activity toward CGRP-mediated CLR/RAMP1 signaling compared to ADE651 [3]: retained the potent antagonistic activity

Molecule: CSCC[C@H](NC(=O)CNC(=O)CNC(=O)[C@H](CO)NC(=O)[C@H](CCCNC(=N)N)NC(=O)[C@H](CO)NC(=O)[C@H](CC(C)C)NC(=O)[C@H](CC(C)C)NC(=O)CNC(=O)[C@H](C)NC(=O)[C@H](CC(C)C)NC(=O)[C@H](CCCNC(=N)N)NC(=O)[C@H](Cc1c[nH]cn1)NC(=O)[C@@H](NC(=O)[C@@H](NC(=O)[C@@H]1CSSC[C@H](NC(=O)[C@H](C)N)C(=O)N[C@@H](CC(N)=O)C(=O)N[C@@H]([C@@H](C)O)C(=O)N[C@@H](C)C(=O)N[C@@H]([C@@H](C)O)C(=O)N1)C(C)C)[C@@H](C)O)C(=O)N[C@H](C(=O)N[C@@H](CCCCN)C(=O)N[C@@H](CO)C(=O)N[C@@H](CC(N)=O)C(=O)N[C@@H](Cc1ccccc1)C(=O)N[C@H](C(=O)N1CCC[C@H]1C(=O)N[C@H](C(=O)N[C@@H](CC(N)=O)C(=O)N[C@H](C(=O)NCC(=O)N[C@@H](CO)C(=O)N[C@@H](CCCCN)C(=O)N[C@@H](C)C(=O)N[C@@H](Cc1ccccc1)C(N)=O)C(C)C)[C@@H](C)O)C(C)C)C(C)C [CGRP, calcitonin gene-related peptide]
- Solubility in 5% glucose solution ([2]; visual): soluble from 0.1% to 20%
- EC80 of agonist in the cAMP assay ([3]; agonist, cAMP Hunter CLR/RAMP1 cells): 0.37 nM
- Peptide level in elutes from 0.1, 5, 10 and 20% solution groups [5]: similar
- Increase in blood flow at the 5 h time point in control animals [6]: > 25%

Molecule: setmelanotide
- Volume of distribution ([1]; approved peptide therapeutics): 48.7 L

Molecule: VGCRFGTCTVQKLAHLWQLMGPAGRQDSAPVDPSSPHSY-NH2 [ADE410]
- Solubility in 5% glucose solution ([2]; visual): soluble from 0.1% to 20%
- Liquid gel formation at 6–20% level ([2]; visual, result in words): does not form a liquid gel
- Peptide level in elutes from 0.1, 5, 10 and 20% solution groups [5]: similar

Molecule: abaloparatide: approved peptide therapeutic
- Volume of distribution ([1]; in vivo): 50.0 L

Molecule: CCCCCCCCCCCCCCCC(=O)N[C@@H](CCCCN)C(=O)N[C@H](C(=O)N[C@@H](CCC(N)=O)C(=O)N[C@@H](CCCNC(=N)NC)C(=O)N[C@@H](CC(C)C)C(=O)N[C@@H](CO)C(=O)N[C@@H](C)C(=O)N1CCC[C@H]1C(=O)N[C@H](C(=O)N[C@@H](CC(=O)O)C(=O)N1CCC[C@H]1C(=O)N[C@@H](CO)C(=O)N[C@@H](CO)C(=O)N1CCC[C@H]1C(=O)N[C@@H](Cc1c[nH]cn1)C(=O)N[C@@H](CO)C(=O)N[C@@H](Cc1ccc(O)cc1)C(N)=O)C(C)C)C(C)C [ADE651M] (Palmitoyl-KVQ[Arg(Me)]LSAPVDPSSPHSY-NH2)
- Gel-forming ability [2]: Y
- Antagonistic activity toward CGRP-mediated CLR/RAMP1 signaling compared to ADE651 [3]: retained the potent antagonistic activity
